Source: patent US10028952B2, “Methods of treating diabetes or obesity using bile acids, bile salts, and mimics thereof” (SATIOGEN PHARMACEUTICALS, INC., priority 2008, dated 2018)
Read-outs that look alike come from different tables or passages of the source.

Columns and labels:
TGR5 = target: T1, TGR5 (Homo sapiens, UniProt Q8TDU6); conditions: TGR5-transfected CHO cells; more potent than the named bile acid; cited from earlier work
T1 construct: expressed in transfected cells; host or cells: CHO cells
T1 sequence (Q8TDU6 1-330): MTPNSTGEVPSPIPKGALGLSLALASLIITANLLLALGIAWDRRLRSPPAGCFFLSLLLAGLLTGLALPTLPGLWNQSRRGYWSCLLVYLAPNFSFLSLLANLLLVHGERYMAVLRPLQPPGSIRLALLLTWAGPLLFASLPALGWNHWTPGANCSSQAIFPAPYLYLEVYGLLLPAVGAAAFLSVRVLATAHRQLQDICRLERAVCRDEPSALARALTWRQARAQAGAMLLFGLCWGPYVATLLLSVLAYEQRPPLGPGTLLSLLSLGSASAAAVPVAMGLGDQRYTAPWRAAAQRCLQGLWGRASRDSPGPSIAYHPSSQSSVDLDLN

[1] = test system: overnight-fasted Sprague Dawley rats
Method: Using a stainless steel dissolving vessel fitted with a propeller stirrer 1 gram of methyl cellulose is dissolved in 100 mL of purified water and stirred for 15 minutes. 12 syringes connected to gavage tubes are then each filled with 3 mL of the composition.
A 4×4 Latin Square design is used to monitor the effect of the different concentration of taurocholate on the food uptake of overnight-fasted Sprague Dawley rats. Each concentration is tested in triplicate with four rats used per replicate.
The ED50 for inhibition of food intake is obtained by plotting the normalizing the dose response for the anorectic effect of taurocholate to the control data as a log of taurocholate dose vs the percentage of control cumulative intake (FIG. 7).

obese human diabetics = conditions: rectal, 0.66-20.0 mmoles in 20 ml 1% carboxymethyl cellulose gel, after 100 mg sitagliptin
Method: Studies were undertaken after an overnight fast following administration (8-10 hours prior to bile salt) of 100 mg sitagliptin, a DPP-4 inhibitor that protects GLP-1 from inactivation by proteolysis. […] The taurocholic acid was administered into the rectum by syringe in a total volume of 20 ml of 1% carboxymethyl cellulose gel. Each dose was administered on a different day with at least three days between doses.

[2] = test system: overnight-fasted Sprague Dawley rats; conditions: 500 mM sodium taurocholate, 3 mL rectal gel, 1% methyl cellulose, over 6 hours
Method: Using a stainless steel dissolving vessel fitted with a propeller stirrer 1 gram of methyl cellulose is dissolved in 100 mL of purified water and stirred for 15 minutes. 5 syringes connected to gavage tubes are then each filled with 3 mL of the composition.
The sodium taurocholate rectal gel described above was rectally administered to 6 conscious overnight-fasted subjects (e.g., Sprague Dawley rats) and the control rectal gel without the sodium taurocholate was rectally administered to 5 conscious overnight-fasted subjects (e.g., Sprague Dawley rats). Each rat was then exposed to pre-weighed food and the cumulative consumption of the food was determined over a 6 hour period by weighing the food after 30 minutes, 60 minutes, 120 minutes, 240 minutes and 360 minutes.

[3] = 50, 150, 500 mM rectal gels, 3 mL

Compound	rank of potency (TGR5 agonist potency) (TGR5)	cumulative food intake, relation to quantity administered [1, 3]	time for which differences in food uptake are maintained [1, 3]	ED50 for inhibition of food intake ([1]; 24 hour intake, rectal gel) [mmol/rat]	ED50 for inhibition of food intake ([1]; at 1 hour, 3 mL doses, rectal gel) [mM]	ED50 for inhibition of food intake ([1]; at 1 hour, rectal gel) [mmol/rat]	dose dependency for inhibition of intake between 8 and 24 hours ([1]; rectal gel)	circulating GLP-1 levels (obese human diabetics)	circulating PYY levels (obese human diabetics)	cumulative food intake compared to rats instilled with gel alone [2]
C[C@H](CCC(=O)O)[C@H]1CC[C@H]2[C@@H]3[C@H](O)C[C@@H]4C[C@H](O)CC[C@]4(C)[C@H]3C[C@H](O)[C@]12C [CA, cholic acid]	> hyodeoxycholic acid (HDCA									
C[C@H](CCC(=O)NCCS(=O)(=O)O)[C@H]1CC[C@H]2[C@@H]3[C@H](O)C[C@@H]4C[C@H](O)CC[C@]4(C)[C@H]3C[C@H](O)[C@]12C [taurocholate, taurocholic acid]		dose dependently related	at least 24 hours	7.2	528	1.6	not different	increase	increase	reduced
